Test results as given in article PMC10447463, “Data-mining unveils structure–property–activity correlation of viral infectivity enhancing self-assembling peptides” (Nature Communications, 2023).

Assays:
TZM-bl cells = assay type: cell-based; conditions: CellTiter-Glo, mean of n = 3 replicates; for viability 0.26 µM: peptide 0.26 µM; for viability 1.3 µM: peptide 1.3 µM; for viability 6.5 µM: peptide 6.5 µM
Procedure, shortened: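 CellTiter-Glo luminescence, normalized to 100% metabolic activity, gave cytotoxicity readout for TZM-bl cells exposed to peptide serial dilutions for 3 days; 10,000 cells seeded, triplicate measurements.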

[1] = Aggregate analysis by widefield fluorescence microscopy; assay type: physicochemical
Description: 4 µL of 1 mg/mL peptide fibrils solution is added to a 20 µL, 50 µM ThT–solution in PBS. The mixture is incubated for 15 min at RT to allow binding of ThT dye with β–sheet rich structures. For reference PBS (4 µL) was added instead of peptide fibril solution. The samples were placed in black UV Star® 384 microliter well–plates (Greiner bio–one). Fluorescence spectra were recorded on an Infinite® M1000 PRO microplate reader (Tecan) at λem = 488 nm upon excitation at λex = 440 nm with 10 nm bandwidths and multiple reads per well (3×3). Measurements were repeated in triplicates and averaged with standard deviation. A peptide fibril was considered as ThT-active if the fluorescence intensity was at least twice as strong compared to the control (PBS containing 10% DMSO). Zeta-Potential. For the determination of the surface charge of aggregated peptides zeta-potential measurements were conducted with a Zetasizer Nano ZS, Malvern Instruments. Unless stated otherwise the peptides were dissolved from DMSO (10 mg/mL) in PBS (pH 7.4) to concentration of 1 mg/mL and incubated for 1d at RT. Just before the measurement the 60 µL of the peptides were further diluted in 600 µL KCl (aq, 1 mM) in a 1 mL disposable folded capillary cells (DTS–1060, Zetasizer Nano series, Malvern). The zeta potential of the peptides was derived from the electrophoretic mobility based on the Smoluchowski formula. All measurements were averaged over two individually performed experiments and conducted in triplicates for each sample. Aggregate analysis. […] Furthermore, fluorescence microscopy was conducted by staining 1 µL preformed fibrils (1 mg/mL) with 9 µL ThT (50 µM). Brightfield microscopy was performed simultaneously to evaluate aggregation also for non ThT-active fibrils. The measurements were performed on a Leica DMi8 microscope with 10x air objective and equipped with a Leica MC170 HD camera with a filter setting λem = 527/30 nm upon excitation at λex = 480/40 nm) and processed with the Leica LASX software. To quantify size and number of microscopic aggregation of particles > 10 µm^2 at least 3 independently measured images were analyzed via the 3D object counter analysis tool of ImageJ, v 1.53f51. Sum–frequency generation. The SFG experiments were carried out with a femtosecond Ti: Sapphire amplified laser system (Spitfire Ace, Spectra–Physics, 800 nm, 40 fs, 1 kHz) with 5 W output power. We used 2 W to pump an optical parametric amplifier (TOPAS, light conversion) with a non–collinear difference frequency generation stage to generate broadband IR pulses. Another 1 W of the laser output passed through an etalon to generate narrowband visible pulses (10 cm^-1). The incident angles of the visible and IR beams were 36° and 41° with respect to the surface normal, respectively. The visible (13 µJ) and IR (5 µJ) pulses were overlapped spatially and temporally at the sample position. Subsequently, the generated SFG pulse was guided into a spectrograph (Acton SP 300i, Princeton Instruments), and detected with an EMCCD (Newton, Andor Technology). To avoid IR absorption of water vapor, we purged N2 for the measurement. All spectra were collected in the ssp (denoting s-, s- and p-polarized SFG, visible and IR, respectively) polarization combination. The spectra were normalized to the non–resonant signal taken from z–cut quartz after subtracting a background spectrum.
Table S8 Summary of aggregate analysis from widefield microscopy measurements (Figure S32). The Number of aggregated peptides, the median size area, average size area
and the cumulative total size area of all particles (> 10 µm2) in an area of 1330 µm × 1330 µm was determined via automated 3D object counting (ImageJ) in triplicate
measurements (Std. Dev.).
Aggregate Std. Dev. Std. Dev. Std. Dev. Std. Dev.
Sequence Abs. Inf. / Std. Dev. / Count Rate / Std. Dev. Number Aggregate Median Area Median Area Average Area Average Area Total Area/ Total Area/ […]

[2] = Fig S8 panels A, C, 3 fields of 1330 µm x 1330 µm
[3] = Fig S8 panels B, D, average aggregate area, 3 fields of 1330 µm x 1330 µm
[4] = Fig S8 panels B, D, median aggregate area, 3 fields of 1330 µm x 1330 µm
[5] = Fig S8 panels B, D, 3 fields of 1330 µm x 1330 µm
[6] = Fig S8 panels B, D, widefield fluorescence microscopy, 3 fields of 1330 µm x 1330 µm

| Substance | viability 0.26 µM (TZM-bl cells) | viability 1.3 µM (TZM-bl cells) | viability 6.5 µM (TZM-bl cells) | Avg Area in 3 *(1330 µm *1330 µm) ([1]; Fig S8 panels A, C) | Log 10 Number of aggregates in 3 * (1330 µm *1330 µm) ([1]; Fig S8 panels A, C) | Median Area in 3 * (1330 µm *1330 µm) ([1]; Fig S8 panels A, C) | log Avg Area in 3 * ( (1330 µm *1330 µm)) ([1]; Fig S8 panels A, C) | log Median Area in 3 * ( (1330 µm *1330 µm)) ([1]; Fig S8 panels A, C) | log Total Area of all particles in 3 * (1330 µm *1330 µm) ([1]; Fig S8 panels A, C) | Number of aggregates in 3 * (1330 µm *1330 µm) [1, 2] | Avg Area in 3 *(1330 µm *1330 µm) [1, 3] | Median Area in 3 * (1330 µm *1330 µm) [1, 4] | Total Area of all particles in 3 * (1330 µm *1330 µm) [1, 5] | Number of aggregates in 3 * (1330 µm *1330 µm) [1, 6] |
| --- | --- | --- | --- | --- | --- | --- | --- | --- | --- | --- | --- | --- | --- | --- |
| KIKQIINMWQ [JG2] | 91.29 | 92.88 | 83.88 | 398.2 | 1.591 | 199.4905 | 2.6 | 2.3 | 4.191 | 39 | 398.2 | 199.4905 | 15530.404 | 39 |
| CKFKQFFNMWQ [CK13] | 122.3 | 108 | 88.49 | – | – | – | – | – | – | – | – | – | – | – |
| QCKAKAQANMWQ [CK22] | 96.23 | 96.71 | 85.72 | – | – | – | – | – | – | – | – | – | – | – |
| QCKIKIQINM [CK2] | 114.5 | 100.8 | 83.71 | – | – | – | – | – | – | – | – | – | – | – |
| KAKAQA [JJA2 / TM153] | 119.1 | 118.6 | 109.1 | – | – | – | – | – | – | – | – | – | – | – |
| KFKFQF [JJA6] | 101.2 | 100.3 | 102.1 | – | – | – | – | – | – | – | – | – | – | – |
| CEFEFQFNMWQ [TM140] | 125.8 | 116.7 | 98.23 | – | – | – | – | – | – | – | – | – | – | – |
| CKIKQIINM [BL1] | 107.4 | 104.1 | 87.1 | – | – | – | – | – | – | – | – | – | – | – |
| KIKQIINM [JGA2] | 123.3 | 117.7 | 101.1 | – | – | – | – | – | – | – | – | – | – | – |
| KIKIKIKIYYYY [JR7] | 98.76 | 92.93 | 78.89 | – | – | – | – | – | – | – | – | – | – | – |
| CKFKFQFNM [BL3] | – | – | – | 19.89 | 2.2313 | 11.55 | 1.299 | 1.063 | 3.53 | 170.3 | 19.89 | 11.55 | 3388 | 170.3 |
| QCKFKFQFNMWQ [CK7] | 107 | 97.9 | 88.11 | – | – | – | – | – | – | – | – | – | – | – |
| CKFKQFF [CK15] | – | – | – | 2578 | 0.7533 | 2243 | 3.411 | 3.351 | 4.165 | 5.667 | 2578 | 2243 | 14606.95267 | 5.667 |
| CKAKAQANMWQ [BL8] | – | – | – | 857.7 | 0.8016 | 479.9 | 2.933 | 2.681 | 3.735 | 6.333 | 857.7 | 479.9 | 5432 | 6.333 |
| KIKIKIQINMWQ [VH9] | 103.6 | 97.29 | 82.19 | – | – | – | – | – | – | – | – | – | – | – |
| MKFKFQF [DF5 / CK16] | 101.4 | 111.3 | 99.71 | – | – | – | – | – | – | – | – | – | – | – |
| CKIKQII [MG4a] | – | – | – | 110.6 | 1.8789 | 36.476 | 2.044 | 1.562 | 3.923 | 75.67 | 110.6 | 36.476 | 8372.136 | 75.67 |
